Reference: BindingDB's records for PubMed 37302340 (Chengdu University of Traditional Chinese Medicine)

Target: 5'-nucleotidase CD73 (Homo sapiens) (UniProt P21589)
Assay: Binding affinity to human recombinant CD73 expressed in Sf9 cells assessed as inhibition constant by malachite green based spectrophotometer assay

Sequence of 5'-nucleotidase CD73 (Homo sapiens) (P21589 whole entry, looked up): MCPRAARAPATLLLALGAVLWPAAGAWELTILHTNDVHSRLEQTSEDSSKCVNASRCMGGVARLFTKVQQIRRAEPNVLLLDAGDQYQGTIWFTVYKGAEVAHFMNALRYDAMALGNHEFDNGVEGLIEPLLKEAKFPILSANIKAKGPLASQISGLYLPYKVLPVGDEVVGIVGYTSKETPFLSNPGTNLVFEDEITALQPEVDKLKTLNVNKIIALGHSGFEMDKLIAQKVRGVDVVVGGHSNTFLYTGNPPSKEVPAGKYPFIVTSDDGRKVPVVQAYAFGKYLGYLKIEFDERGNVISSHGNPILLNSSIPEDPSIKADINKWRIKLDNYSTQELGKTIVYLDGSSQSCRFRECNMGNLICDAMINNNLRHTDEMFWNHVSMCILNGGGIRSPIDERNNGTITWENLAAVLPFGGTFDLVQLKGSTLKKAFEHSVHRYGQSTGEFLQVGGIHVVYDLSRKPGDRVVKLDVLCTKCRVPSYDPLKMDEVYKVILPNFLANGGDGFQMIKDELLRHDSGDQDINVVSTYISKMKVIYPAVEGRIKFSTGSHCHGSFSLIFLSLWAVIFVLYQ

Q: With `CCN(CC)c1nc(Cl)nc2c1ncn2[C@@H]1O[C@H](COCP(=O)(O)OP(=O)(O)C(Br)(Br)P(=O)(O)O)[C@@H](O)[C@H]1O` as the compound, how does the Ki read?
A: 97 nM
